According to patent US20090076140A1, “PHARMACEUTICAL COMPOSITIONS CONTAINING SULPHONIC ACID DERIVATIVES” (ITALFARMACO, S. A., priority 2003, published 2009):

Key:
[1] = biological target: T1, aFGF (Homo sapiens, UniProt P05230); set-up: the aFGF of 139 amino acid residues; conditions: Lozano et al. (1998); cited from earlier work
Target sequence in this assay (P05230 16-155 limits assumed): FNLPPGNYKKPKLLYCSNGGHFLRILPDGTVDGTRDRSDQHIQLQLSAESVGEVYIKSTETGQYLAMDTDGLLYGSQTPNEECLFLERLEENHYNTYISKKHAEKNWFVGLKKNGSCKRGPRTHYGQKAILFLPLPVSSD

[2] = biological target: T1, aFGF; conditions: literature (Pesenti et al.; Cuevas et al.); cited from earlier work
Target sequence in this assay (P05230 whole entry, species assumed): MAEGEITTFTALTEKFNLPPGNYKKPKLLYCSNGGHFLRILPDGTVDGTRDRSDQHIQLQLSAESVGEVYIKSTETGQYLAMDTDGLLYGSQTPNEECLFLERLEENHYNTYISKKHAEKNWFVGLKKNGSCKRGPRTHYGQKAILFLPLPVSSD

[3] = biological target: T1, aFGF; conditions: in vitro and in vivo; cited from earlier work
Target sequence in this assay (P05230 whole entry, species assumed): as above

[4] = biological target: bFGF (Homo sapiens, UniProt P09038); assay: angiogenesis inhibition test in mice with aFGF substituted with bFGF; type: in vivo; conditions: data not shown
bFGF, sequence (P09038 143-288, species assumed): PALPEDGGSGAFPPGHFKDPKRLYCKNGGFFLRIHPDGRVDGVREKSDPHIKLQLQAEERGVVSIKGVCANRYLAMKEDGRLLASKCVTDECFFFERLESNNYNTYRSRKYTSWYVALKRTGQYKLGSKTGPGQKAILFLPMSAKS

[5] = toxicity observations in the mouse angiogenesis test; type: in vivo; conditions: highest tested concentrations
Experimental: (§1) Pathogen-free C57/BI/6 mice (Charles River, Spain) weighing 25±4 g were used. The animals were kept in plastic cages under controlled temperature and humidity conditions; they had water and food ad libitum and a schedule of 12 hours of daylight and darkness was maintained. The guidelines on animal welfare of the NIH and the European Union were followed meticulously.
10 mm long sterile gelatin sponge cubes (Curaspon Dental, Clinimed Holding, Zwanenburg, Holland) were subcutaneously implanted in the backs of the mice after inducing intraperitoneal anesthesia [Cuevas, P. et al. (1999) Neurol. Res. 21, 191-194]. The animals were distributed into 2 groups: Group A (n=10): formed by animals in which sponges loaded with 200 μL of phosphate buffered saline (PBS) containing 29 μg/mL of heparin were implanted; and Group B (n=40): formed by animals in which sponges soaked with the same solution as that of Group A but containing 10 μg/mL of aFGF were implanted. The skin was sutured after implanting the sponge in the subcutaneous bursa. The mice in Group B were randomly divided into four groups (n=10) that received 0.008, 0.08, 0.8 and 8 mg/kg of compound C-9, respectively, by means of intraperitoneal injection of 200 μL of PBS 24 hours after surgical treatment [Pesenti, E. et al. (1992) Brit. J. Cancer 66, 367-372; Cuevas, P. et al. (1999) Neurol. Res. 21, 191-194]. […]

[6] = test system: quiescent fibroblasts (Balb/c 3T3); assay: toxicity analysis for quiescent fibroblasts (culture in the absence of aFGF); type: cell-based; conditions: for toxicity for quiescent fibroblasts: within the concentration range tested / in which aFGF mitogenic activity is inhibited
[7] = biological target: T1, aFGF; assay: angiogenesis inhibition test in mice (aFGF-soaked gelatin sponge implants); type: in vivo
Experimental: A standard angiogenesis test was performed with mice in order to evaluate the C-9 compound as an angiogenesis inhibitor.
as §1
Target sequence in this assay (P05230 whole entry, species assumed): as the sequence (P05230 whole entry, species assumed) above
10 mm long sterile gelatin sponge cubes (Curaspon Dental, Clinimed Holding, Zwanenburg, Holland) were subcutaneously implanted in the backs of the mice after inducing intraperitoneal anesthesia [Cuevas, P. et al. (1999) Neurol. Res. 21, 191-194]. The animals were distributed into 2 groups: Group A (n=10): formed by animals in which sponges loaded with 200 μL of phosphate buffered saline (PBS) containing 29 μg/mL of heparin were implanted; and Group B (n=40): formed by animals in which sponges soaked with the same solution as that of Group A but containing 10 μg/mL of aFGF were implanted. The skin was sutured after implanting the sponge in the subcutaneous bursa. The mice in Group B were randomly divided into four groups (n=10) that received 0.008, 0.08, 0.8 and 8 mg/kg of compound C-9, respectively, by means of intraperitoneal injection of 200 μL of PBS 24 hours after surgical treatment [Pesenti, E. et al. (1992) Brit. J. Cancer 66, 367-372; Cuevas, P. et al. (1999) Neurol. Res. 21, 191-194]. All the procedures were performed under sterile conditions.
In order to evaluate angiogenesis, the mice were again anesthetized as previously described, and the sponges were surgically extracted, which were treated to perform histological studies by means of conventional methods [Cuevas, P. et al. (1999) Neurol. Res. 21, 191-194] 7 days after the implants. Neovascularization was quantified by means of a morphometric computer program connected to a microscope. The growth of new vessels inside the sponges was evaluated by means of the measurement of the surface area containing erythrocytes. Neovascularization was analyzed in 4 predetermined visual fields of 3 different sections at a magnification of 10. The statistical analyses were performed using Student's t-Test.

[8] = test system: glioma C6 cells; assay: angiogenesis and tumor growth inhibition, glioma C6 cells implanted in rabbit cornea; type: in vivo, Albino New Zealand rabbits
Experimental: Albino New Zealand rabbits (3±0.5 kg, male and female in equal numbers) were used and were implanted with 5 μL of a glioma C6 cell suspension [ATCC CCL-107] subepithelially injected into the cornea with a 10 μL Hamilton syringe using a surgical microscope. The injection is located at 2 mm from the limbal margin of the cornea. At the same time, an osmotic minipump was subcutaneously implanted in the neck region for the purpose of assuring continuous infusion of the compound to be tested (C-9) or of a saline solution (control). A catheter guided the solution to the sclera at a constant rate of 0.2 mg/h. It is thus calculated that a concentration of about 0.003 mg/mL of the compound to be tested or saline solution is maintained in the cornea. Treatment was maintained for 14 days. The corneas were eliminated at the end of each experiment and at fixed intervals after each treatment and processed for histological examination.

[9] = test system: C6 glioma cells; assay: angiogenesis and tumor growth inhibition, C6 glioma cells implanted in rat brain; type: in vivo, rats
Experimental: A test similar to the one described in Example 3.1 was performed with rats, implanting the C6 glioma cells in the caudal area of the brain and the osmotic micropump in the back of the rats. A catheter led the treatment solution that contained the C-9 compound or the saline solution to the area of the glioma implant. Coronal sections of the brain of the rats thus treated were obtained and compared with coronal sections of the brain of untreated rats. The analysis was done by means of NMR spectroscopy imaging.

[10] = biological target: T1, aFGF; assay: aFGF-induced mitogenesis inhibition test on fibroblasts in culture; type: cell-based; set-up: the aFGF of 139 amino acid residues
Target sequence in this assay (P05230 16-155 limits assumed): as the sequence (P05230 16-155 limits assumed) above

## O=S(=O)(O)c1ccc2c(S(=O)(=O)O)cc(S(=O)(=O)O)cc2c1 [1,3,6-NTS, 1,3,6-naphthalenetrisulfonic acid]
[1]
  aFGF-induced mitogenic activity inhibition (literature): aFGF-induced mitogenic activity inhibitors
[2]
  concentration required to reach substantial neovascularization inhibition: about 200 mg/kg
[3]
  aFGF-induced angiogenesis and glioma proliferation inhibition (literature): positive results

## Nc1cccc2cc(S(=O)(=O)[O-])ccc12.[Na+] [Compound C-9, sodium 5-amino-2-naphthalenesulfonate]
[4]
  neovascularization inhibition with bFGF instead of aFGF: Equivalent results
[5]
  toxic death or apparent alterations in the animals: did not cause any toxic death or apparent alterations
  weight changes: nor did it cause weight changes
[6]; absence of aFGF
  mitogenesis inductor / tumorigenic effect on quiescent fibroblasts in the absence of aFGF: does not occur
[6]
  toxicity for quiescent fibroblasts: innocuous
[6]; listed as sodium 5-amino-2-naphthalenesulfonate
  toxicity for quiescent fibroblasts: not toxic
[7]; 0.008 mg/kg intraperitoneal, 7 days after implants
  neovascularization inhibition: already assessable
[7]; 0.08 mg/kg intraperitoneal, 7 days after implants
  neovascularization inhibition: already assessable
[7]; 8 mg/kg intraperitoneal, FIG. 2
  cellular infiltration in aFGF-soaked sponge implants: disappears
[7]; doses exceeding 0.8 mg/kg intraperitoneal
  neovascularization inhibition: virtually complete
[7]; mouse, in vivo
  aFGF-induced angiogenic activity inhibition (in words): aFGF-induced angiogenic activity inhibitors
  neovascularization inhibition compared with suramines and 1,3,6-NTS: considerably more effective neovascularization inhibitor
[8]; continuous infusion 0.2 mg/h, 14 days
  apoptosis index: very positive
[8]; in comparison with the untreated animals
  corneal neovascularization area: very reduced
[8]; treated animals
  apoptotic endothelial nuclei (microscopic observation): presence of apoptotic endothelial nuclei
  broken blood vessels (microscopic observation): presence of broken blood vessels
  number of apoptotic bodies (microscopic observation): higher number
  number of glioma C6 cells (microscopic observation): lower number
[9]; NMR imaging of coronal brain sections vs untreated rats
  tumor mass: significantly decreased
[9]; rat, in vivo
  intratumor vascularization inhibition (factor): six
[10]; Balb/c 3T3 fibroblasts, 60 hours, MIHS 20 μg/mL, aFGF 0.32 ng/mL
  aFGF-induced mitogenic activity inhibition (in words): potent aFGF-induced mitogenic activity inhibitors
[10]; C-9 and C-17 vs. C-14 and C-18, C-10, C-11, C-13 vs. C-9, 2-NMS vs 1-NMS series
  aFGF-induced mitogenic inhibitory activity compared between compounds (stereochemical guidelines): better aFGF-induced mitogenic activity inhibitors
[10]; aFGF-induced mitogenesis
  IC50 rank among the tested compounds: second best IC50 value
[10]; aFGF-induced mitogenesis, Balb/c 3T3 fibroblasts, read-out: inhibitory activity IC50
  IC50: 265 µM
